What was measured:
Type in all cases: in vivo
[1] = tested on: rice (Oryza sativa); assay: Test B flooded paddy test; settings: for Plant response rating, Flood, Rice: 250 g ai/ha, flooded paddy test, visual rating on 0 to 100 scale (0 no effect, 100 complete control) after 13 to 15 days; for Plant response rating, Rice: Flood (flooded paddy test), 13 to 15 days; for Rice plant response rating: Flood, 31 g ai/ha, scale 0 to 100 (0 no effect, 100 complete control)
Outline: (§1)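 Plants were grown to the 2-leaf stage, then pots were flooded to 3 cm above the soil and compounds were applied directly into the paddy water. That depth was held throughout. After 13 to 15 days in a greenhouse, injury was visually rated against controls on a 0–100 scale.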

[2] = tested on: barnyardgrass (Echinochloa crus-galli); assay: Test B flooded paddy test; settings: for Plant response rating, Flood, Barnyardgrass: 250 g ai/ha, flooded paddy test, visual rating on 0 to 100 scale (0 no effect, 100 complete control) after 13 to 15 days; for Plant response rating, Barnyardgrass: Flood (flooded paddy test), 13 to 15 days; for Barnyardgrass plant response rating: Flood, 31 g ai/ha, scale 0 to 100 (0 no effect, 100 complete control)
Outline: as §1

[3] = tested on: umbrella sedge (Cyperus difformis); assay: Test B flooded paddy test; settings: for Plant response rating, Flood, Sedge, Umbrella: 250 g ai/ha, flooded paddy test, visual rating on 0 to 100 scale (0 no effect, 100 complete control) after 13 to 15 days; for Plant response rating, Sedge, Umbrella: Flood (flooded paddy test), 13 to 15 days; for Sedge, Umbrella plant response rating: Flood, 31 g ai/ha, scale 0 to 100 (0 no effect, 100 complete control)
Outline: as §1

[4] = tested on: ducksalad (Heteranthera limosa); assay: Test B flooded paddy test; settings: for Plant response rating, Flood, Ducksalad: 250 g ai/ha, flooded paddy test, visual rating on 0 to 100 scale (0 no effect, 100 complete control) after 13 to 15 days; for Plant response rating, Ducksalad: Flood (flooded paddy test), 13 to 15 days; for Ducksalad plant response rating: Flood, 31 g ai/ha, scale 0 to 100 (0 no effect, 100 complete control)
Outline: as §1

[5] = tested on: ragweed (common ragweed, Ambrosia elatior); assay: Test B pre-/postemergence plant response; settings: for Ragweed plant response rating (0 to 100 scale): 0 is no effect, 13 to 15 days
Outline: (§2)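 Visually scored on a 0 to 100 scale after 13 to 15 days in greenhouse versus controls. Treatments were preemergence on seeded loam/sand soil and postemergence on 1- to 4-leaf plants.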

[6] = tested on: corn (Zea mays); assay: Test B pre-/postemergence plant response; settings: for Corn plant response rating (0 to 100 scale): 0 is no effect, 13 to 15 days
Outline: as §2

[7] = tested on: bermudagrass (Cynodon dactylon); assay: Test B pre-/postemergence plant response; settings: for Bermudagrass plant response rating (0 to 100 scale): 0 is no effect, 13 to 15 days
Outline: as §2

[8] = tested on: Surinam grass (Brachiaria decumbens); assay: Test B pre-/postemergence plant response; settings: for Surinam Grass plant response rating (0 to 100 scale): 0 is no effect, 13 to 15 days
Outline: as §2

[9] = tested on: cocklebur (Xanthium strumarium); assay: Test B pre-/postemergence plant response; settings: for Cocklebur plant response rating (0 to 100 scale): 0 is no effect, 13 to 15 days
Outline: as §2

[10] = tested on: soybean (Glycine max); assay: Test B pre-/postemergence plant response; settings: for Soybean plant response rating (0 to 100 scale): 62 g ai/ha, 0 is no effect, 13 to 15 days
Outline: as §2

[11] = tested on: blackgrass (Alopecurus myosuroides); assay: Test B pre-/postemergence plant response; settings: for Blackgrass plant response rating (0 to 100 scale): 0 is no effect, 13 to 15 days
Outline: as §2

[12] = tested on: Italian ryegrass (Lolium multiflorum); assay: Test B pre-/postemergence plant response; settings: for Ryegrass, Italian plant response rating (0 to 100 scale): 0 is no effect, 13 to 15 days
Outline: as §2

[13] = tested on: morningglory (Ipomoea coccinea); assay: Test B pre-/postemergence plant response; settings: for Morningglory plant response rating (0 to 100 scale): 0 is no effect, 13 to 15 days
Outline: as §2

[14] = 62 g ai/ha, scale of 0 to 100 where 0 is no effect and 100 is complete control
[15] = 125 g ai/ha, scale 0 to 100, 0 is no effect, 100 is complete control
[16] = 31 g ai/ha, postemergence, scale 0 to 100, 0 is no effect, 100 is complete control
[17] = 62 g ai/ha, postemergence, 100 is complete control
[18] = Postemergence, 125 g ai/ha, visual rating after 13 to 15 days, scale 0 (no effect) to 100 (complete control)
[19] = Postemergence, 250 g ai/ha, scale 0 to 100 (0 no effect, 100 complete control)
[20] = Preemergence, 31 g ai/ha, scale 0 to 100 (0 no effect, 100 complete control)
[21] = Preemergence, 62 g ai/ha, scale 0 to 100 (0 no effect, 100 complete control)
[22] = Preemergence, 125 g ai/ha, scale 0 to 100, 0 no effect, 100 complete control
[23] = 250 g ai/ha, Preemergence, 0 to 100 scale
[24] = postemergence, 100 is complete control

## CCCCc1ncc(C(=O)C2=C(O)CCCC2=O)c(=O)n1-c1ccc(C)cc1 [Compound 67]
[1]
  Plant response rating, Flood, Rice: 0
  Rice plant response rating: 0
[1]; [14]
  Plant response rating, Rice: 0
[1]; [15]
  Plant response rating, Rice: 0
[2]
  Plant response rating, Flood, Barnyardgrass: 0
  Barnyardgrass plant response rating: 0
[2]; [14]
  Plant response rating, Barnyardgrass: 0
[2]; [15]
  Plant response rating, Barnyardgrass: 0
[3]
  Plant response rating, Flood, Sedge, Umbrella: 0
  Sedge, Umbrella plant response rating: 0
[3]; [14]
  Plant response rating, Sedge, Umbrella: 0
[3]; [15]
  Plant response rating, Sedge, Umbrella: 0
[4]
  Plant response rating, Flood, Ducksalad: 0
  Ducksalad plant response rating: 0
[4]; [14]
  Plant response rating, Ducksalad: 0
[4]; [15]
  Plant response rating, Ducksalad: 0
[5]; [16]
  Plant response rating, Ragweed: 75
[5]; [17]
  Ragweed plant response rating (0 to 100 scale): 80
[5]; [18]
  Plant response rating, Ragweed: 85
[5]; [19]
  Plant response rating, Ragweed: 90
[5]; [20]
  Plant response rating, Ragweed: 25
[5]; [21]
  Plant response rating, Ragweed: 25
[5]; [22]
  Plant response rating, Ragweed: 35
[6]; [16]
  Plant response rating, Corn: 5
[6]; [17]
  Corn plant response rating (0 to 100 scale): 10
[6]; [23]
  Plant response rating, Corn: 0
[6]; [18]
  Plant response rating, Corn: 65
[6]; [19]
  Plant response rating, Corn: 75
[6]; [20]
  Plant response rating, Corn: 0
[6]; [21]
  Plant response rating, Corn: 0
[6]; [22]
  Plant response rating, Corn: 0
[7]; [16]
  Plant response rating, Bermudagrass: 35
[7]; [17]
  Bermudagrass plant response rating (0 to 100 scale): 70
[7]; [23]
  Plant response rating, Bermudagrass: 100
[7]; [18]
  Plant response rating, Bermudagrass: 70
[7]; [19]
  Plant response rating, Bermudagrass: 85
[7]; [20]
  Plant response rating, Bermudagrass: 45
[7]; [21]
  Plant response rating, Bermudagrass: 90
[7]; [22]
  Plant response rating, Bermudagrass: 95
[8]; [16]
  Plant response rating, Surinam Grass: 10
[8]; [17]
  Surinam Grass plant response rating (0 to 100 scale): 20
[8]; [18]
  Plant response rating, Surinam Grass: 20
[8]; [19]
  Plant response rating, Surinam Grass: 25
[8]; [20]
  Plant response rating, Surinam Grass: 0
[8]; [21]
  Plant response rating, Surinam Grass: 10
[8]; [22]
  Plant response rating, Surinam Grass: 15
[9]; [16]
  Plant response rating, Cocklebur: 75
[9]; [17]
  Cocklebur plant response rating (0 to 100 scale): 75
[9]; [23]
  Plant response rating, Cocklebur: 20
[9]; [18]
  Plant response rating, Cocklebur: 90
[9]; [19]
  Plant response rating, Cocklebur: 90
[9]; [20]
  Plant response rating, Cocklebur: 0
[9]; [21]
  Plant response rating, Cocklebur: 0
[9]; [22]
  Plant response rating, Cocklebur: 15
[10]; [16]
  Plant response rating, Soybean: 80
[10]; [24]
  Soybean plant response rating (0 to 100 scale): 90
[10]; [18]
  Plant response rating, Soybean: 98
[10]; [19]
  Plant response rating, Soybean: 98
[11]; [16]
  Plant response rating, Blackgrass: 0
[11]; [17]
  Blackgrass plant response rating (0 to 100 scale): 0
[11]; [23]
  Plant response rating, Blackgrass: 5
[11]; [18]
  Plant response rating, Blackgrass: 5
[11]; [19]
  Plant response rating, Blackgrass: 10
[11]; [20]
  Plant response rating, Blackgrass: 0
[11]; [21]
  Plant response rating, Blackgrass: 0
[11]; [22]
  Plant response rating, Blackgrass: 0
[12]; [16]
  Plant response rating, Ryegrass, Italian: 0
[12]; [17]
  Ryegrass, Italian plant response rating (0 to 100 scale): 5
[12]; [18]
  Plant response rating, Ryegrass, Italian: 5
[12]; [19]
  Plant response rating, Ryegrass, Italian: 5
[12]; [20]
  Plant response rating, Ryegrass, Italian: 0
[12]; [21]
  Plant response rating, Ryegrass, Italian: 0
[12]; [22]
  Plant response rating, Ryegrass, Italian: 0
[13]; [16]
  Plant response rating, Morningglory: 80
[13]; [17]
  Morningglory plant response rating (0 to 100 scale): 90
[13]; [18]
  Plant response rating, Morningglory: 95
[13]; [19]
  Plant response rating, Morningglory: 100
[13]; [20]
  Plant response rating, Morningglory: 0
[13]; [21]
  Plant response rating, Morningglory: 15
[13]; [22]
  Plant response rating, Morningglory: 15

## O=C1CCCC(O)=C1C(=O)c1cnc(-c2ccccc2Br)n(-c2ccccc2)c1=O [Compound 71]
[1]
  Plant response rating, Flood, Rice: 0
  Rice plant response rating: 0
[1]; [14]
  Plant response rating, Rice: 0
[1]; [15]
  Plant response rating, Rice: 0
[2]
  Plant response rating, Flood, Barnyardgrass: 0
  Barnyardgrass plant response rating: 0
[2]; [14]
  Plant response rating, Barnyardgrass: 0
[2]; [15]
  Plant response rating, Barnyardgrass: 0
[3]
  Plant response rating, Flood, Sedge, Umbrella: 25
  Sedge, Umbrella plant response rating: 0
[3]; [14]
  Plant response rating, Sedge, Umbrella: 0
[3]; [15]
  Plant response rating, Sedge, Umbrella: 0
[4]
  Plant response rating, Flood, Ducksalad: 0
  Ducksalad plant response rating: 0
[4]; [14]
  Plant response rating, Ducksalad: 0
[4]; [15]
  Plant response rating, Ducksalad: 0
[5]; [16]
  Plant response rating, Ragweed: 75
[5]; [17]
  Ragweed plant response rating (0 to 100 scale): 80
[5]; [18]
  Plant response rating, Ragweed: 80
[5]; [19]
  Plant response rating, Ragweed: 95
[6]; [16]
  Plant response rating, Corn: 0
[6]; [17]
  Corn plant response rating (0 to 100 scale): 0
[6]; [18]
  Plant response rating, Corn: 0
[6]; [19]
  Plant response rating, Corn: 15
[7]; [16]
  Plant response rating, Bermudagrass: 65
[7]; [17]
  Bermudagrass plant response rating (0 to 100 scale): 75
[7]; [18]
  Plant response rating, Bermudagrass: 80
[7]; [19]
  Plant response rating, Bermudagrass: 98
[8]; [16]
  Plant response rating, Surinam Grass: 50
[8]; [17]
  Surinam Grass plant response rating (0 to 100 scale): 55
[8]; [18]
  Plant response rating, Surinam Grass: 65
[8]; [19]
  Plant response rating, Surinam Grass: 85
[9]; [16]
  Plant response rating, Cocklebur: 65
[9]; [17]
  Cocklebur plant response rating (0 to 100 scale): 65
[9]; [18]
  Plant response rating, Cocklebur: 95
[9]; [19]
  Plant response rating, Cocklebur: 95
[10]; [16]
  Plant response rating, Soybean: 65
[10]; [24]
  Soybean plant response rating (0 to 100 scale): 70
[10]; [18]
  Plant response rating, Soybean: 95
[10]; [19]
  Plant response rating, Soybean: 98
[11]; [16]
  Plant response rating, Blackgrass: 0
[11]; [17]
  Blackgrass plant response rating (0 to 100 scale): 0
[11]; [18]
  Plant response rating, Blackgrass: 0
[11]; [19]
  Plant response rating, Blackgrass: 5
[12]; [16]
  Plant response rating, Ryegrass, Italian: 0
[12]; [17]
  Ryegrass, Italian plant response rating (0 to 100 scale): 0
[12]; [18]
  Plant response rating, Ryegrass, Italian: 0
[12]; [19]
  Plant response rating, Ryegrass, Italian: 5
[13]; [16]
  Plant response rating, Morningglory: 65
[13]; [17]
  Morningglory plant response rating (0 to 100 scale): 65
[13]; [18]
  Plant response rating, Morningglory: 75
[13]; [19]
  Plant response rating, Morningglory: 80

Reference: patent US8952024B2, “Herbicidal pyrimidone derivatives” (E I du Pont de Nemours and Company, priority 2009, dated 2015)
